# Reference: patent publication US20240398818A1, “Cardiosafe Antidiabetic Therapy” (priority 2018, published 2024)
# What was measured:
# [1] = tested on: patients with T2D; conditions: compared to placebo; cited from earlier work
# [2] = tested on: adult patients with early type 2 diabetes mellitus and increased CV risk or established complications; test: Cardiovascular Safety Trial (linagliptin versus glimepiride); assay type: in vivo
# Method: The effect of linagliptin on cardiovascular risk in adult patients with early type 2 diabetes mellitus and increased CV risk or established complications was evaluated in this Cardiovascular Safety Trial, a multi-center, multi-national, randomized, double-blind parallel group trial. The trial compared the risk of experiencing a major adverse cardiovascular event (MACE) between linagliptin and glimepiride when these were added to standard of care (including background therapy with metformin) based on regional standards for HbA1c and CV risk factors. The trial was event driven and patients were followed until at least 631 primary outcome events accrued.
# A total of 6033 patients were treated (linagliptin 5 mg=3023; glimepiride 1 mg to 4 mg=3010) and followed for a median of 6.25 years (median time on treatment 5.9 years). Approximately 73% of the study population was Caucasian, 18% was Asian, and 5% was Black. The mean age was 64 years and 60% were male.
# At baseline, disease characteristics were balanced. […] The trial population included 2030 (34%) patients ≥70 years of age, 2089 (35%) patients with cardiovascular disease, and 1130 (19%) patients with renal impairment with an eGFR <60 mL/min/1.73 m2 at baseline. Overall, the previous use of diabetes medications was balanced across treatment groups (metformin 83% continued as background therapy, sulfonylurea 28% discontinued prior to randomization), patients on insulin were excluded. The use of medications to reduce cardiovascular risk was also balanced (aspirin 47%, statins 65%, ACE inhibitors or ARBs 74%, beta blockers 39%, and calcium channel blockers 30%).
# The primary endpoint in this Cardiovascular Safety Trial was the time to first occurrence of three point (3P) MACE. A major adverse cardiac event was defined as a cardiovascular death or a nonfatal myocardial infarction (MI) or a nonfatal stroke. The statistical analysis plan tested for non-inferiority for the occurrence of 3P MACE. The key secondary endpoint evaluated the composite of treatment sustainability defined as the proportion of patients on study treatment, that maintain glycemic control (HbA1c≤7.0%) without need for additional antidiabetic drug therapy (rescue medication), without any moderate (symptomatic with glucose value <70 mg/dL) or severe (requiring assistance) hypoglycemic episodes, and without >2% weight gain from baseline.
# Cardiovascular Outcome Trial of Linagliptin Versus Glimepriride in Type 2 Diabetes—assessing long-term cardiovascular impact of linagliptin versus the sulphonylurea glimepiride in subjects with early type 2 diabetes and increased cardiovascular risk or established complications. […]
# Type 2 diabetes patient with insufficient glycemic control (naïve or currently treated (mono or dual therapy) with e.g. metformin and/or an alpha-glucosidase inhibitor (e.g. having HbA1c 6.5-8.5%), or currently treated (mono or dual therapy) with e.g. a sulphonylurea or glinide, with or without metformin or an alpha-glucosidase inhibitor (e.g. having HbA1c 6.5-7.5%)) and increased or high risk of cardiovascular events, e.g. defined as one or more of risk factors A), B), C) and D) indicated below, are randomized* and treated over a lengthy period (e.g. up to 432 weeks) with linagliptin (5 mg, q.d., optionally in combination with one or more other active substances, e.g. such as added to existing antidiabetic background) and compared with patients treated with the sulphonylurea glimepiride (1-4 mg once daily). * Upon randomization, if a patient is on a SU or glinide, this secretagogue therapy is discontinued and replaced with study medication. For patients not on a secretagogue, study medication is added to the existing regimen.
# Time to first occurrence of any of the following adjudicated components of the primary composite endpoint: […]
# [3] = baseline to Final Visit, all observed cases
# [4] = baseline to Final Visit, observed cases including values after rescue medication
# [5] = both, human, in vivo, 5.9 years
# [6] = both, human, in vivo, 6.25 years
# [7] = component of secondary composite
# [8] = from end of titration (16 weeks) to final visit
# [9] = median follow-up 6.25 years, listed as glimepiride
compound,measurement,setting,value
N#C[C@@H]1C[C@@H]2C[C@@H]2N1C(=O)[C@@H](N)C12CC3CC(CC(O)(C3)C1)C2 [saxagliptin],effect on major adverse CV event (MACE) outcomes (in words),[1],neutral effect
Cn1c(=O)cc(N2CCC[C@@H](N)C2)n(Cc2ccccc2C#N)c1=O [alogliptin],effect on major adverse CV event (MACE) outcomes (in words),[1],neutral effect
CCC1=C(C)CN(C(=O)NCCc2ccc(S(=O)(=O)NC(=O)N[C@H]3CC[C@H](C)CC3)cc2)C1=O [Glimepiride],patients with macroalbuminuria (>300 mg/g),[2]; at Final Visit,1.4%
same,patients with microalbuminuria (≥30 to ≤300 mg/g),[2]; at Final Visit,16.0%
same,patients with normal UACR (<30 mg/g),[2]; at baseline and at Final Visit,57.7%
same,"FPG, Change from baseline, adjusted mean",[2]; [3],19.7 mg/dL
same,"HBA1c, Change from baseline, adjusted mean",[2]; [3],0.15%
same,"Creatinine, Change from baseline, adjusted mean",[2]; [4],0.09 mg/dL
same,"HDL, Change from baseline, adjusted mean",[2]; [4],0.3 mg/dL
same,"LDL, Change from baseline, adjusted mean",[2]; [4],-6.5 mg/dL
same,"Total cholesterol, Change from baseline, adjusted mean",[2]; [4],-5.0 mg/dL
same,"Triglyceride, Change from baseline, adjusted mean",[2]; [4],5.2 mg/dL
same,"Urinary albumin, Change from baseline, adjusted mean",[2]; [4],45.2 mg/dL
same,"third key secondary endpoint of treatment sustainability (on medication, HbA1c≤7.0%, no rescue, no >2% weight gain), responders",[2]; between Visit 6 and Final Visit,14.1%
same,"Hospitalization for heart failure (HHF), Incidence Rate per 1000 PY","[2]; both, human, in vivo",5.3 per 1000 PY
same,"Hospitalization for heart failure (HHF), Number of Subjects","[2]; both, human, in vivo",92
same,"Patients with any moderate/severe hypoglycemic episodes, Number of Subjects","[2]; both, human, in vivo",791
same,"Patients with any moderate/severe hypoglycemic episodes, Subjects (%)","[2]; both, human, in vivo",27.5%
same,"Secondary CV composite (4P-MACE), Incidence Rate per 1000 PY","[2]; both, human, in vivo",23.7 per 1000 PY
same,rate of moderate or severe hypoglycemia,[2]; [5],30.9%
same,severe hypoglycemia (requiring assistance),[2]; [5],2.2%
same,"Hospitalization for heart failure (HHF), Subjects (%)",[2]; [6],3.1%
same,Premature discontinuation from trial medication due to adverse events,[2]; [6],17.4%
same,"Primary CV composite (3P-MACE), Incidence Rate per 1000 PY",[2]; [6],21.2 per 1000 PY
same,"all-cause mortality, incidence rate per 1000 years at risk",[2]; [6],18.4 per 1000 years at risk
same,"any adjudicated event (secondary CV endpoint), % of patients",[2]; [6],17.8%
same,"hospitalisation for heart failure combined with CV death, incidence rate per 1000 years at risk",[2]; [6],13.4 per 1000 years at risk
same,"hospitalisation for heart failure, incidence rate per 1000 years at risk",[2]; [6],5.3 per 1000 years at risk
same,"investigator-reported heart failure AEs, % of patients",[2]; [6],5.2%
same,"investigator-reported heart failure AEs, incidence rate per 1000 years at risk",[2]; [6],9.0 per 1000 years at risk
same,"non-CV death, % of patients",[2]; [6],5.6%
same,"non-CV death, incidence rate per 1000 years at risk",[2]; [6],9.2 per 1000 years at risk
same,proportion of patients with CV death contributing to the 3P-MACE,[2]; [6],4.2%
same,proportion of patients with CV death contributing to the 4P-MACE,[2]; [6],4.1%
same,proportion of patients with hospitalisation for unstable angina pectoris contributing to the 4P-MACE,[2]; [6],1.8%
same,proportion of patients with non-fatal MI contributing to the 3P-MACE,[2]; [6],4.6%
same,proportion of patients with non-fatal MI contributing to the 4P-MACE,[2]; [6],4.3%
same,proportion of patients with non-fatal stroke contributing to the 3P-MACE,[2]; [6],3.4%
same,proportion of patients with non-fatal stroke contributing to the 4P-MACE,[2]; [6],3.3%
same,"Patients with maintained glycemic control (HbA1c ≤7.0%), Number of Subjects",[2]; [7],554
same,"Patients with maintained glycemic control (HbA1c ≤7.0%), Subjects (%)",[2]; [7],18.5%
same,"Patients with ≤2% weight gain, Number of Subjects",[2]; [7],699
same,"Patients with ≤2% weight gain, Subjects (%)",[2]; [7],23.3%
same,"Secondary composite of treatment sustainability (on treatment, HbA1c ≤7.0%, no rescue, no moderate/severe hypoglycemic episodes, no >2% weight gain), Number of Subjects",[2]; [8],305
same,"Secondary composite of treatment sustainability (second key secondary endpoint), Subjects (%)",[2]; [8],10.2%
same,"first intake of rescue medication, incidence rate per 1000 years at risk",[2]; in vivo,115.5 per 1000 years at risk
same,rate of patients who used rescue medication,[2]; in vivo,47.1%
same,"All-cause mortality, Incidence Rate per 1000 PY",[2]; median follow-up 6.25 years,18.4 per 1000 PY
same,"All-cause mortality, Number of Subjects",[2]; median follow-up 6.25 years,336
same,"All-cause mortality, Subjects (%)",[2]; median follow-up 6.25 years,(11.2) %
same,"HHF or CV death, Incidence Rate per 1000 PY",[2]; median follow-up 6.25 years,13.4 per 1000 PY
same,"HHF or CV death, Number of Subjects",[2]; median follow-up 6.25 years,234
same,"HHF or CV death, Subjects (%)",[2]; median follow-up 6.25 years,(7.8) %
same,"Secondary CV composite (cardiovascular death, non-fatal MI, non-fatal stroke and hospitalization for unstable angina; 4P-MACE), Number of Subjects",[2]; median follow-up 6.25 years,401
same,"Primary CV composite (cardiovascular death, non-fatal MI, non-fatal stroke; 3P-MACE), Number of Subjects","[2]; median follow-up 6.25 years, added to standard of care",362
same,"All-cause mortality, Subjects (%)",[2]; [9],12.3%
same,"HHF or CV death, Subjects (%)",[2]; [9],7.8%
same,weight change (in words),[2]; over time,initial numerical weight increase
N[C@@H](CC(=O)N1CCn2c(nnc2C(F)(F)F)C1)Cc1cc(F)c(F)cc1F [sitagliptin],effect on major adverse CV event (MACE) outcomes (in words),[1],neutral effect
